Key:
[1] = biological target: T1, hAMY3R (Homo sapiens, UniProt O60896+P30988); experiment: Species-specific cAMP assay, hAMY3R; settings: ratio of cAMP EC50 values, human receptors
T1 sequence (P30988 25-474): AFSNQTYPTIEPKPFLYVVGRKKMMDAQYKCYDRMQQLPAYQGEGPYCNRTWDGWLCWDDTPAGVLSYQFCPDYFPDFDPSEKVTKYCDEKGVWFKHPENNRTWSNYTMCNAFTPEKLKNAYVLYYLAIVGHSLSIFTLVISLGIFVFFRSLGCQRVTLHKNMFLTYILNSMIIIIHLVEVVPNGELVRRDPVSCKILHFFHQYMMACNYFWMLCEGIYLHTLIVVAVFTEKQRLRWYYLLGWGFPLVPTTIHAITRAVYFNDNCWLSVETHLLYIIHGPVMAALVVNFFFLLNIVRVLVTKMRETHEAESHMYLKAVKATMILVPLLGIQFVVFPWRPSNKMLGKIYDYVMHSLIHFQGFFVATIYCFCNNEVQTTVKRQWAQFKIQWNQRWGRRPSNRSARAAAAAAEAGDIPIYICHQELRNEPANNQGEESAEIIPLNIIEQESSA
T1 sequence (O60896 24-148 partner): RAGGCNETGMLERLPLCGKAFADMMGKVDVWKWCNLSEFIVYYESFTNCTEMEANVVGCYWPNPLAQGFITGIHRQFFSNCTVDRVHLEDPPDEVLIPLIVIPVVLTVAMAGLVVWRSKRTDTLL

[2] = biological target: hAMY1R (Homo sapiens, UniProt O60894+P30988); experiment: Species-specific cAMP assay, hAMY1R; settings: ratio of cAMP EC50 values, human receptors
[3] = biological target: T2, rAMY3R (Rattus norvegicus, UniProt P32214+Q9JJ73); experiment: Whole-cell competition binding, rAMY3R; set-up: expressed in transfected cells; host or cells: BHK tk-ts 13, transient co-transfection (FuGENE 6); settings: IC50 for the CTR divided by that of the AMYR, rat receptors
T2 sequence (P32214 25-479 isoform P32214-2 limits assumed): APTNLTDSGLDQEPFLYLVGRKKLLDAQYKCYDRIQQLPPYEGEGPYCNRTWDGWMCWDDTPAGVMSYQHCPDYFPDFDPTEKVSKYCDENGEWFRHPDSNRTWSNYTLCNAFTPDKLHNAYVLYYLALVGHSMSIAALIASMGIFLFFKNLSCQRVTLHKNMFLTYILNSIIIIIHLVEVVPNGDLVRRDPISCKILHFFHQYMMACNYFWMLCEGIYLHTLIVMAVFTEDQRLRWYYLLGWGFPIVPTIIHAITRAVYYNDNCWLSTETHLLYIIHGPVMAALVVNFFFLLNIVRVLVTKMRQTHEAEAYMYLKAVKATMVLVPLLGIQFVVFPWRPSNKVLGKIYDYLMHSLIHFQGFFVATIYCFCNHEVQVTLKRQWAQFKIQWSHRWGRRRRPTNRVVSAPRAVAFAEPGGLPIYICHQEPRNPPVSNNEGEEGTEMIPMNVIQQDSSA
T2 sequence (Q9JJ73 23-147 partner): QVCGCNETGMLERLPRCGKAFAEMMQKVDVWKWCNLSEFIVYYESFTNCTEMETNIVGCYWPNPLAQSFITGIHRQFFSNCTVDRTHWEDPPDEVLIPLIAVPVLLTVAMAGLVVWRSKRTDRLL

[4] = biological target: T3, mAMY3R (Mus musculus, UniProt Q60755+Q9WUP1); experiment: Mouse receptor cAMP HTRF assay (BacMam, HeLa), mAMY3R; settings: ratio of cAMP EC50 values, mouse receptors
T3 sequence (Q60755 42-496 isoform Q60755-2 limits assumed): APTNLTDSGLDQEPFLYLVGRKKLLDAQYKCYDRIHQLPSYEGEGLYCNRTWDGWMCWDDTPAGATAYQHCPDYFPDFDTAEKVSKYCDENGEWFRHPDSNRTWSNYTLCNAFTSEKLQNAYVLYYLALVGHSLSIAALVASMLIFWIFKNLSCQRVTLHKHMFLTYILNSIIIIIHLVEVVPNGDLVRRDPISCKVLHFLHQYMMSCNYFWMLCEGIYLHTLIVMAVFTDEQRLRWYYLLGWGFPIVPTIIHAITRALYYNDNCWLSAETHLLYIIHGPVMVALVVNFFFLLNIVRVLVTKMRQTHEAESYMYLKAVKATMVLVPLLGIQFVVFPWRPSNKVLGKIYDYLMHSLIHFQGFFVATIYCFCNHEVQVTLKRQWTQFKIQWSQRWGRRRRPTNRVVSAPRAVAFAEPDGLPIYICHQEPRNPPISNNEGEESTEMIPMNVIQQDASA
T3 sequence (Q9WUP1 24-147 partner limits assumed): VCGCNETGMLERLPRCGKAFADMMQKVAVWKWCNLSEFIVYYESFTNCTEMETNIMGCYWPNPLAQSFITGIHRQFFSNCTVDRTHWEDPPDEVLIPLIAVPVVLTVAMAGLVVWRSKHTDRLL
Experimental: Mouse Receptors (Functional Assay Only). Cell culture: HeLa cells were cultured in an incubator at 37 °C and 5% CO2, in cell culture medium (DMEM with 10% [v/v] FBS, 1% [w/w] penicillin/streptomycin).
Cell seeding in T75 flasks (day 1): The day before transfection of the cells, 2 x 10^6 HeLa cells were seeded in three T75 flasks and incubated overnight. Media was removed from 1–2 T175 flasks and cells were washed once with Dulbecco PBS (with Mg2+ and Ca2+). Cells were detached with 2 mL TrypLE Express for 5 min in an incubator. Five mL pre-warmed media was added to each T75 flask and mixed with the cell suspension. Cells were counted in 100 µL of this suspension. The cell suspension was centrifuged at 1200 rpm for 4 min and the supernatant was discarded. The cells were re-suspended in media and 2 x 10^6 cells were seeded in approximately 15 mL in each of the three T75 flasks. The flasks were incubated overnight.
with 20 µL poly-d-lysin/well for 2–3 h at 37 °C. The plates were washed twice with PBS and allowed
Transfection of cells (day 2): Reagents were acclimated to room temperature for 30 min. Media was
removed from the T75 flasks, and cells were washed once with PBS (with Mg2+ and Ca2+). Cells were
Seeding of transfected cells in assay plates (day 2): Following the 3-h transduction, T75 flasks were
washed once with PBS (with Mg2+ and Ca2+). […]
mL pre-warmed media and counted.

[5] = test system: cAMY1R; experiment: Species-specific cAMP assay, cAMY1R; settings: for Ratio CTR/AMY1R (canine, functional): ratio of cAMP EC50 values, canine receptors
[6] = biological target: T1, hAMY3R; experiment: Whole-cell competition binding, hAMY3R; set-up: expressed in transfected cells; host or cells: BHK tk-ts 13, transient co-transfection; whole cells for the species-specific assays; settings: IC50 for the CTR divided by that of the AMYR, human receptors
[7] = test system: DIO rats; experiment: DIO rat weight loss assay; format: in vivo; settings: for Absolute body weight Day 21: mean ± SEM; for reduction in body weight relative to baseline: 21 days, n = 8/group
Experimental: The ability of NN1213 to reduce body weight was tested in DIO rats fed an HFD. Rats were dosed once daily sc with either vehicle or NN1213 (n = 8–10 per group). Food intake and body weight were measured daily on individually housed rats. […] Body fat and lean mass are expressed as changes from baseline.
VetXX, Specific CCD, Dechra, UK).
eaten within 30 min. […] In figure 4, mean accumulated food
rats were assessed in DIO rats.
controlled temperature conditions (22 °C).
Pharmacokinetic Evaluation.
Species n administration (nmol/kg) (h)

[8] = test system: cCTR; experiment: Species-specific cAMP assay, cCTR; settings: cAMP HTRF, transiently transfected BHK cells, 30 min room temperature, five experiments
[9] = in vivo; settings: female, New Zealand white, rabbit, iv
Experimental: (§1) Blood samples were collected at fixed time points postdose to determine full PK profiles. Plasma samples were analyzed by ELISA. Plasma concentration–time profiles were analyzed by noncompartmental analysis.
(§2) Rabbits: Female rabbits (New Zealand white, Charles River; 21–23 weeks; 2.5–3.5 kg) were group-
(§3) housed (10 per cage) in normal day–night rhythm from arrival and had free access to food and water.
(§4) The rabbits were treated against coccidiosis during their 5-week acclimation period upon arrival. Iv
(§5) dosing was performed as a bolus injection into an ear vein with a dosing volume of 0.1 mL/kg. The
(§6) dosing solution was at room temperature before injection. Venous blood sampling was performed
(§7) directly through puncture of an ear vein using a needle. A full plasma concentration–time profile was
obtained from each animal.
(§8) Blood (300 µL) was collected directly into test
(§9) tubes containing EDTA buffer (Microvette CB 300 K2E). Samples were kept on wet ice until
(§10) centrifugation (10 min, 4 °C, 3000 rpm). Plasma (100 µL) was transferred immediately to Micronic
(§11) tubes and kept at –20 °C until analysis.
(§12) Plasma analysis: Plasma samples were analyzed by a commercially available kit (Millipore, Human
Amylin ELISA, cat. #EZHA-52-K). […]
(§13) was applied and the plate was read on a fluorescent reader with an excitation/emission wavelength of
(§14) samples. The lower limit of quantification (LLOQ) was 100–500 pM.

[10] = in vivo, iv
Experimental: as §1, §2, §3, §4, §5, §6, §7
obtained from each animal.
as §8, §9, §10, §11, §12
Amylin ELISA, cat. #EZHA-52-K). […]
as §13, §14

hAMY1R, sequence (O60894 27-148 partner, one chain of several): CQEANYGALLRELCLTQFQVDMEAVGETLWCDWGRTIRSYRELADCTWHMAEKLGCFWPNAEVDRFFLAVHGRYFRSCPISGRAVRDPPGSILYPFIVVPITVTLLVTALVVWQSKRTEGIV

Structure (SMILES): CC[C@H](C)[C@H](NC(=O)[C@H](C)NC(=O)CNC(=O)[C@H](Cc1ccccc1)NC(=O)[C@H](CC(N)=O)NC(=O)[C@@H]1CCCN1C(=O)[C@H](CO)NC(=O)[C@H](CO)NC(=O)[C@H](Cc1c[nH]cn1)NC(=O)[C@H](CCCNC(=N)N)NC(=O)[C@H](CC(C)C)NC(=O)[C@H](Cc1ccccc1)NC(=O)[C@H](CC(=O)O)NC(=O)[C@H](C)NC(=O)[C@H](CC(C)C)NC(=O)[C@H](CCCNC(=N)N)NC(=O)[C@H](CCC(N)=O)NC(=O)[C@@H](NC(=O)[C@H](C)NC(=O)[C@@H]1CSSC[C@H](NC(=O)[C@@H](N)CCCCNC(=O)CC[C@H](NC(=O)CC[C@H](NC(=O)CCCCCCCCCCCCCCCCCCC(=O)O)C(=O)O)C(=O)O)C(=O)N[C@@H](CC(N)=O)C(=O)N[C@@H]([C@@H](C)O)C(=O)N[C@@H](C)C(=O)N[C@@H]([C@@H](C)O)C(=O)N1)[C@@H](C)O)C(=O)N1CCC[C@H]1C(=O)N[C@@H](CO)C(=O)N[C@@H](CO)C(=O)N[C@H](C(=O)N[C@@H](CC(N)=O)C(=O)N[C@H](C(=O)NCC(=O)N[C@@H](CO)C(=O)N[C@@H](CCCNC(=N)N)C(=O)N[C@H](C(=O)N[C@@H](Cc1ccc(O)cc1)C(N)=O)[C@@H](C)O)C(C)C)[C@@H](C)O [NN1213]
- Ratio CTR/AMY3R (human, functional) [1]: 51
- Ratio CTR/AMY1R (human, functional) [2]: 32
- Ratio CTR/AMY3R (rat, binding) [3]: 52
- Ratio CTR/AMY3R (mouse, functional) [4]: 24
- cAMY1R pEC50 ([5]; cAMP HTRF, transiently transfected BHK cells, 30 min room temperature, five experiments): 9.87
- Ratio CTR/AMY1R (canine, functional) [5]: 3
- Ratio CTR/AMY1R (canine, functional) ([5]; listed as NN1213/peptide 21): 2
- Ratio CTR/AMY3R (human, binding) [6]: 67
- Absolute body weight Day 21 ([7]; 3 µg/kg (0.7 nmol/kg) sc once daily): 705.5 ± 38.4 g
- Absolute body weight Day 21 ([7]; 10 µg/kg (2.2 nmol/kg) sc once daily): 664.4 ± 19.3 g
- Absolute body weight Day 21 ([7]; 30 µg/kg (6.6 nmol/kg) sc once daily): 682.4 ± 27.7 g
- Absolute body weight Day 21 ([7]; 100 µg/kg (22 nmol/kg) sc once daily): 667.8 ± 11.9 g
- body weight lost after 21 days ([7]; high-dose group (22 nmol/kg) sc once daily): 69.6 ± 7.5 g
- body weight lost after 21 days ([7]; low-dose group 0.7 nmol/kg sc once daily): 32.0 ± 3.6 g
- reduction in body weight relative to baseline ([7]; sc once daily 0.7 nmol/kg): 4.7%
- reduction in body weight relative to baseline ([7]; sc once daily 2.2, 6.6, 22 nmol/kg doses): 8.7–9.3%
- cCTR pEC50 [8]: 9.39
- half-life [9]: 2940 min
- terminal plasma half-life (T1/2), rabbit [10]: approximately 50 h

— publication PMC11284788, “NN1213 – A Potent, Long-Acting, and Selective Analog of Human Amylin” (Journal of Medicinal Chemistry, 2024)
